Patent EP0876144B1, “THERAPEUTIC ANTI-ASTHMA AGENTS CONTAINING EBSELEN” (A. Nattermann & Cie. GmbH, priority 1996, dated 1997)
Entries after “also recorded” stand apart in the source; their conditions may differ.

Tests used:
[1] = test system: Meerschweinchen, die ein Antigen induziertes Asthma besitzen; experiment: antigen (ovalbumin)-induced asthma in conscious, spontaneously breathing guinea pigs; lung function (sGaw) by body plethysmograph; format: in vivo, Hartley Meerschweinchen; settings: for Bereiche der Unterdrückung der unmittelbaren asthmatischen Reaktionen: comparison of Ebselen group (5 mg/kg i.p.) with Dexamethason group (1 mg/kg i.p., 4 days)
Experimental: Die Wirksamkeiten von Ebselen wurden unter Verwendung von Meerschweinchen, die ein Antigen induziertes Asthma besitzen, durch Überprüfung der Lungenfunktionen unter Bewußtsein und spontaner Atmung getestet.
Jedes der weiblichen Hartley Meerschweinchen (SLC) (4 Wochen alt, Körpergewicht etwa 250 bis 300 g) wurden vorbehandelt mit Cyclophosmid (2 mg/kg). Nach zwei Tagen wurden intraperitoneal Ovalbumin (OA, 1 mg) und Aluminiumgel (1 g) injiziert. Drei Wochen später wurden wiederum OA (0,1 mg) und Aluminiumgel (1 g) intraperitoneal injiziert. Die so behandelten Meerschweinchen wurden als sensibilisierte Tiere benutzt. Zu diesem Testzeitpunkt waren die Meerschweinchen elf Wochen alt und hatten ein Körpergewicht von 450 bis 580 g.
Körper-Pressmograph, Drucktyp • Pulmotacograph (TP-601G, Nippon Kodensha) • Differentialmeßwandler (T-601, Nippon Kodensha) • Gasflußwiderstandsrohr (Lilly type, Nippon Kodensha) • Oszilloskop (DS-9121, Iwasaki Tsushinki) • Computer (Macintosh Centris 660 AV, Apple) • Software (zur Analyse der Atmung basierend auf LabView für Macintosh 3.01) • Zerstäuber (NE-U10, Tateishi Denki)
Dexamethason (1 mg/kg) wurde in 100 % DMSO (1 ml) gelöst. Diese Lösung wurde während vier aufeinander folgende Tage intraperitoneal injiziert. Die letzte intraperitoneale Injektion wurde 24 Stunden vor der Induzierung der Antigene durchgeführt.
Gruppe der mit Ebselen vorbehandelten Meerschweinchen Ebselen (5 mg/kg) wurde in 100 % DMSO (1 ml) gelöst. Diese Lösung wurde intraperitoneal 30 Minuten vor der Induzierung der Antigene injiziert.
100 % DMSO (1 ml) wurde intraperitoneal 30 Minuten vor der Induzierung der Antigene injiziert.
OA (40 mg) wurde in einer physiologischen Salzlösung (4 mg/ml) gelöst. Diese Lösung wurde 2 Minuten lang unter Verwendung eines Ultraschallzerstäubers inhaliert.
In Übereinstimmung mit dem Verfahren von Agrawal (Agrawal, K. P.; Specific Airway Conductance in Guinea Pigs: "Normal Values and Histamine Induced Fall", Respiratory Physiology 43:23, 1981) wurde jedes Meerschweinchen auf einem Körper-Pressmograph, Drucktyp, fixiert und die prozentuale Variation des spezifischen Luftweg-Leitwertes (sGaw) wurde gemessen. Der Luftfluß durch die Nase und die Änderung des Innendruckes der Box wurden aufgezeichnet. Die entsprechenden Wellenformen' wurden digital bei 1.024 Hz gesammelt und die Punkte vom Ende des Ausatmens bis zum Beginn des Einatmens wurden als rückläufige Linie aufgezeichnet. Unter Verwendung der Neigung (tan) der rückläufigen Linie wurde der sGaw erhalten. Der sGaw-Wert wurde vor der Induzierung der Antigene gemessen. Nachdem eine physiologische Salzlösung für zwei Minuten inhaliert wurde, wurde der sGaw nochmals gemessen, um sicherzustellen, daß sich keine Daten geändert hatten. […]

[2] = acute toxicity test (LD50) in mice; settings: mouse, in vivo, Maus
Text: (§1) Darüber hinaus konnte gefunden werden, daß Ebselen sehr sicher ist, wie dies durch die nachfolgenden und in der Tabelle 1 wiedergegebenen LD50-Werte bewiesen wird, wobei diese Werte das Ergebnis eines Toxizitätstests unter Verwendung von Mäusen und Ratten, denen diese Verbindungen oral oder intraperitoneal verabreicht wurden, darstellen. Selbst dann, wenn diese Verbindungen in hohen Dosen verabreicht werden, zeigen sie keine Nebeneffekte, die ernsthafte Probleme verursachen. Tabelle 1

Lipoxygenase = settings: Peter Kuhl et al, Prostaglandins, 31 (1986), 1029-1048; cited from earlier work
[3] = acute toxicity test (LD50) in rats; settings: rat, in vivo, Ratte
Text: as §1

Compound | Unterdrückung der unmittelbaren asthmatischen Reaktionen (sGaw) ([1]; Ebselen 5 mg/kg i.p. 30 min before antigen challenge, compared with control group (DMSO)) | Unterdrückung der späten asthmatischen Reaktionen (sGaw) ([1]; Ebselen 5 mg/kg i.p. 30 min before antigen challenge, compared with control group (late reactions at 180 to 420 min in controls)) | Bereiche der Unterdrückung der unmittelbaren asthmatischen Reaktionen [1] | LD50 ([2]; ip) | LD50 ([2]; po) | Lipoxygenase inhibierende Wirkung (Lipoxygenase) | LD50 ([3]; ip) | LD50 ([3]; po)
O=c1c2ccccc2[se]n1-c1ccccc1 [Ebselen, 2-Phenyl-1,2-Benzoisoselenazole-3(2H)-one] | wirkungsvoller unterdrückt | wirkungsvoller unterdrückt; also recorded: erheblich und vollständig unterdrückt | überwiegend gleich | 740 mg/kg | > 6810 mg/kg | deutliche Lipoxygenase inhibierende Wirkung | 580 mg/kg | > 6810 mg/kg
C[C@@H]1C[C@H]2[C@@H]3CCC4=CC(=O)C=C[C@]4(C)[C@@]3(F)[C@@H](O)C[C@]2(C)[C@@]1(O)C(=O)CO [Dexamethason, reference compound] |  |  | überwiegend gleich |  |  |  |  | 
